ChEMBL document CHEMBL5096191 (J Med Chem, 2021)

Experiments:
Assay type in all cases: functional, cell-based
Cannabinoid receptor 2 [1] = biological target: T1, Cannabinoid receptor 2 (Homo sapiens, UniProt P34972); test: Partial agonist activity at wild type CB2 receptor (unknown origin) stably expressed in HEK293T assessed as decrease in forskolin induced cAMP level preincubated for 15 mins followed by forskolin addition incubated for 15 mins in presence of cannabidiol by HTRF assay relative to control; conditions: filed as partial agonist, time 30.0 min
Cannabinoid receptor 2 [2] = biological target: T1, Cannabinoid receptor 2; test: Partial agonist activity at wild type CB2 receptor (unknown origin) expressed in HEK293T assessed as increase in ERK1/2 phosphorylation incubated for 7 mins in presence of cannabidiol by AlphaScreenSureFire method relative to control; conditions: filed as partial agonist
Cannabinoid receptor 2 [3] = biological target: T1, Cannabinoid receptor 2; test: Positive allosteric modulation of JWH-133-induced agonist activity at wild type CB2 receptor (unknown origin) stably expressed in HEK293T cells assessed as inhibition of forskolin-stimulated cAMP levels preincubated for 15 mins followed by forskolin addition incubated for 15 mins by HTRF assay
Cannabinoid receptor 2 [4] = biological target: T2, Cannabinoid receptor 2 (Homo sapiens, UniProt P34972, V36M); test: Partial agonist activity at CBR2 V361.35M mutant (unknown origin) stably expressed in HEK293T assessed as decrease in forskolin induced cAMP level preincubated for 15 mins followed by forskolin addition incubated for 15 mins by HTRF assay
[5] = test system: Cannabinoid receptor 2 (Homo sapiens), P34972 [V113M]; test: Partial agonist activity at CBR2 V1133.32M mutant (unknown origin) expressed in HEK293T assessed as increase in picometer shifts of reflected light wavelengths by DMR assay relative to control; conditions: filed as partial agonist
Cannabinoid receptor 2 [6] = biological target: T1, Cannabinoid receptor 2; test: Partial agonist activity at wild type CB2 receptor (unknown origin) expressed in HEK293T assessed as increase in ERK1/2 phosphorylation incubated for 7 mins by AlphaScreenSureFire method relative to control; conditions: filed as partial agonist
Cannabinoid receptor 2 [7] = biological target: T1, Cannabinoid receptor 2; test: Partial agonist activity at wild type CB2 receptor (unknown origin) stably expressed in HEK293T assessed as decrease in forskolin induced cAMP level preincubated for 15 mins followed by forskolin addition incubated for 15 mins by HTRF assay
Cannabinoid receptor 2 [8] = biological target: Cannabinoid receptor 2 (Homo sapiens, UniProt P34972, S285L); test: Partial agonist activity at CBR2 S2857.39L mutant (unknown origin) expressed in HEK293T assessed as increase in ERK1/2 phosphorylation incubated for 7 mins by AlphaScreenSureFire method
Cannabinoid receptor 2 [9] = biological target: T2, Cannabinoid receptor 2; test: Partial agonist activity at CBR2 V361.35M mutant (unknown origin) expressed in HEK293T assessed as increase in picometer shifts of reflected light wavelengths by DMR assay
[10] = test system: Cannabinoid receptor 2 (Homo sapiens), P34972 [S285L]; test: Partial agonist activity at CBR2 S2857.39L mutant (unknown origin) stably expressed in HEK293T assessed as decrease in forskolin induced cAMP level preincubated for 15 mins followed by forskolin addition incubated for 15 mins in presence of cannabidiol by HTRF assay relative to control; conditions: filed as partial agonist, time 30.0 min
Cannabinoid receptor 2 [11] = biological target: T1, Cannabinoid receptor 2; test: Partial agonist activity at wild type CB2 receptor (unknown origin) stably expressed in HEK293T assessed as decrease in forskolin induced cAMP level preincubated for 15 mins followed by forskolin addition incubated for 15 mins in presence of cannabidiol by HTRF assay
Cannabinoid receptor 2 [12] = biological target: T1, Cannabinoid receptor 2; test: Partial agonist activity at wild type CB2 receptor (unknown origin) stably expressed in HEK293T assessed as decrease in forskolin induced cAMP level preincubated for 15 mins followed by forskolin addition incubated for 15 mins by HTRF assay relative to control; conditions: filed as partial agonist, time 30.0 min
Cannabinoid receptor 2 [13] = biological target: T3, Cannabinoid receptor 2 (Homo sapiens, UniProt P34972, A282M); test: Partial agonist activity at CBR2 A2827.36M mutant (unknown origin) stably expressed in HEK293T assessed as decrease in forskolin induced cAMP level preincubated for 15 mins followed by forskolin addition incubated for 15 mins by HTRF assay
[14] = test system: Cannabinoid receptor 2 (Homo sapiens), P34972 [V113M]; test: Partial agonist activity at CBR2 V1133.32M mutant (unknown origin) stably expressed in HEK293T assessed as decrease in forskolin induced cAMP level preincubated for 15 mins followed by forskolin addition incubated for 15 mins by HTRF assay relative to control; conditions: filed as partial agonist, time 30.0 min
[15] = test system: Cannabinoid receptor 2 (Homo sapiens), P34972 [V36M]; test: Partial agonist activity at CBR2 V361.35M mutant (unknown origin) expressed in HEK293T assessed as increase in ERK1/2 phosphorylation incubated for 7 mins in presence of cannabidiol by AlphaScreenSureFire method relative to control; conditions: filed as partial agonist
Cannabinoid receptor 2 [16] = biological target: Cannabinoid receptor 2 (Homo sapiens, UniProt P34972, V113M); test: Partial agonist activity at CBR2 V1133.32M mutant (unknown origin) stably expressed in HEK293T assessed as decrease in forskolin induced cAMP level preincubated for 15 mins followed by forskolin addition incubated for 15 mins by HTRF assay
[17] = test system: Cannabinoid receptor 2 (Homo sapiens), P34972 [A282M]; test: Partial agonist activity at CBR2 A2827.36M mutant (unknown origin) stably expressed in HEK293T assessed as decrease in forskolin induced cAMP level preincubated for 15 mins followed by forskolin addition incubated for 15 mins by HTRF assay relative to control; conditions: filed as partial agonist, time 30.0 min
[18] = test system: Cannabinoid receptor 2 (Homo sapiens), P34972 [A282M]; test: Partial agonist activity at CBR2 A2827.36M mutant (unknown origin) expressed in HEK293T assessed as increase in picometer shifts of reflected light wavelengths in presence of cannabidiol by DMR assay relative to control; conditions: filed as partial agonist
Cannabinoid receptor 2 [19] = biological target: T1, Cannabinoid receptor 2; test: Partial agonist activity at wild type CB2 receptor (unknown origin) expressed in HEK293T assessed as increase in ERK1/2 phosphorylation incubated for 7 mins by AlphaScreenSureFire method
Cannabinoid receptor 2 [20] = biological target: T3, Cannabinoid receptor 2; test: Partial agonist activity at CBR2 A2827.36M mutant (unknown origin) expressed in HEK293T assessed as increase in ERK1/2 phosphorylation incubated for 7 mins in presence of cannabidiol by AlphaScreenSureFire method
[21] = test system: Cannabinoid receptor 2 (Homo sapiens), P34972 [S285L]; test: Partial agonist activity at CBR2 S2857.39L mutant (unknown origin) expressed in HEK293T assessed as increase in ERK1/2 phosphorylation incubated for 7 mins in presence of cannabidiol by AlphaScreenSureFire method relative to control; conditions: filed as partial agonist
[22] = test system: Cannabinoid receptor 2 (Homo sapiens), P34972 [V36M]; test: Partial agonist activity at CBR2 V361.35M mutant (unknown origin) expressed in HEK293T assessed as increase in ERK1/2 phosphorylation incubated for 7 mins by AlphaScreenSureFire method relative to control; conditions: filed as partial agonist
[23] = test system: Cannabinoid receptor 2 (Homo sapiens), P34972 [V36M]; test: Partial agonist activity at CBR2 V361.35M mutant (unknown origin) stably expressed in HEK293T assessed as decrease in forskolin induced cAMP level preincubated for 15 mins followed by forskolin addition incubated for 15 mins in presence of cannabidiol by HTRF assay relative to control; conditions: filed as partial agonist, time 30.0 min
[24] = test system: Cannabinoid receptor 2 (Homo sapiens), P34972 [S285L]; test: Partial agonist activity at CBR2 S2857.39L mutant (unknown origin) expressed in HEK293T assessed as increase in ERK1/2 phosphorylation incubated for 7 mins by AlphaScreenSureFire method relative to control; conditions: filed as partial agonist
Cannabinoid receptor 2 [25] = biological target: T2, Cannabinoid receptor 2; test: Partial agonist activity at CBR2 V361.35M mutant (unknown origin) expressed in HEK293T assessed as increase in ERK1/2 phosphorylation incubated for 7 mins by AlphaScreenSureFire method
[26] = test system: Cannabinoid receptor 2 (Homo sapiens), P34972 [A282M]; test: Partial agonist activity at CBR2 A2827.36M mutant (unknown origin) expressed in HEK293T assessed as increase in ERK1/2 phosphorylation incubated for 7 mins in presence of cannabidiol by AlphaScreenSureFire method relative to control; conditions: filed as partial agonist

T1 sequence (P34972 whole entry): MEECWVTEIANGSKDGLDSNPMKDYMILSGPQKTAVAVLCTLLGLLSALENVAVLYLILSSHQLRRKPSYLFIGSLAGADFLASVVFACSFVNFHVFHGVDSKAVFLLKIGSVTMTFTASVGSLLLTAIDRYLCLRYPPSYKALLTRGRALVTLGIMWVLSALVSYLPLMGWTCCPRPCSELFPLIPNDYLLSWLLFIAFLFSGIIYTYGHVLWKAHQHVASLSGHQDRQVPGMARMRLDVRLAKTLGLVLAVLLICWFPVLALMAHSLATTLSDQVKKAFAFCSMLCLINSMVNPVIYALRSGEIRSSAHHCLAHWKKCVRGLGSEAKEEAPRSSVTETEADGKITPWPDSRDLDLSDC
T2 sequence (P34972 whole entry V36M): as the sequence (P34972 whole entry) above, with V36M counted along it
Chain of Cannabinoid receptor 2 (Homo sapiens), P34972 [V36M] (P34972 whole entry V36M): as the sequence (P34972 whole entry) above, with V36M counted along it
Chain of Cannabinoid receptor 2 (Homo sapiens), P34972 [A282M] (P34972 whole entry A282M): as the sequence (P34972 whole entry) above, with A282M counted along it
Chain of Cannabinoid receptor 2 (Homo sapiens), P34972 [S285L] (P34972 whole entry S285L): as the sequence (P34972 whole entry) above, with S285L counted along it
Chain of Cannabinoid receptor 2 (Homo sapiens), P34972 [V113M] (P34972 whole entry V113M): as the sequence (P34972 whole entry) above, with V113M counted along it
T3 sequence (P34972 whole entry A282M): as the sequence (P34972 whole entry) above, with A282M counted along it
Chain of Cannabinoid receptor 2 (Homo sapiens, UniProt P34972, V113M) (P34972 whole entry V113M): as the sequence (P34972 whole entry) above, with V113M counted along it
Chain of Cannabinoid receptor 2 (Homo sapiens, UniProt P34972, S285L) (P34972 whole entry S285L): as the sequence (P34972 whole entry) above, with S285L counted along it

How did the Emax (Cannabinoid receptor 2 [1]) turn out when `CCCC(C)(C)c1cc(O)c2c(c1)OC(C)(C)[C@@H]1CC=C(C)C[C@@H]21` was run?
Its Emax is 57.8%.

And the Emax (Cannabinoid receptor 2 [2])?
The Emax was 250%.

What about the EC50 (Cannabinoid receptor 2 [3]) of the same molecule?
Its EC50 is 25.1 nM.

What about the EC50 (Cannabinoid receptor 2 [4]) of the same molecule?
The EC50 was 12.6 nM.

What about the Emax [5] of the same molecule?
The Emax was 79.9%.

What about the Emax (Cannabinoid receptor 2 [6]) of the same molecule?
Its Emax is 322%.

And the EC50 (Cannabinoid receptor 2 [7])?
Its EC50 is 31.6 nM.

What about the EC50 (Cannabinoid receptor 2 [8]) of the same molecule?
Its EC50 is 39.8 nM.

And the EC50 (Cannabinoid receptor 2 [9])?
Its EC50 is 631 nM.

What about the Emax [10] of the same molecule?
The Emax was 57.4%.

And the EC50 (Cannabinoid receptor 2 [11])?
Its EC50 is 50.1 nM.

What about the Emax (Cannabinoid receptor 2 [12]) of the same molecule?
Its Emax is 46%.

What about the EC50 (Cannabinoid receptor 2 [13]) of the same molecule?
Its EC50 is 12.6 nM.

What about the Emax [14] of the same molecule?
The Emax was 72.5%.

And the Emax [15]?
Its Emax is 353%.

What about the EC50 (Cannabinoid receptor 2 [16]) of the same molecule?
The EC50 was 20 nM.

What about the Emax [17] of the same molecule?
Its Emax is 45.4%.

What about the Emax [18] of the same molecule?
Its Emax is 189%.

What about the EC50 (Cannabinoid receptor 2 [19]) of the same molecule?
The EC50 was 7.94 nM.

What about the EC50 (Cannabinoid receptor 2 [20]) of the same molecule?
The EC50 was 12.6 nM.

What about the Emax [21] of the same molecule?
The Emax was 291%.

What about the Emax [22] of the same molecule?
Its Emax is 363%.

What about the Emax [23] of the same molecule?
The Emax was 53%.

What about the Emax [24] of the same molecule?
The Emax was 374%.

And the EC50 (Cannabinoid receptor 2 [25])?
Its EC50 is 31.6 nM.

What about the Emax [26] of the same molecule?
The Emax was 352%.
